From PubChem BioAssay (NCI)
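Grown in 96-well plates, cells were treated for 48 hours with each compound at five concentrations. Insufficient inhibition: endpoint recorded as highest concentration tested. TGI marks complete inhibition of growth.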

Key:
Assay in all cases: NCI-60 cell line screen, 48 h
IGROV1 ovarian = tested on: IGROV1 ovarian
MOLT-4 leukemia = tested on: MOLT-4 leukemia
MDA-MB-231 breast = tested on: MDA-MB-231 breast
U251 CNS = tested on: U251 CNS
DU-145 prostate = tested on: DU-145 prostate
OVCAR-5 ovarian = tested on: OVCAR-5 ovarian
CAKI-1 renal = tested on: CAKI-1 renal
SK-MEL-28 melanoma = tested on: SK-MEL-28 melanoma
PC-3 prostate = tested on: PC-3 prostate
MCF7 breast = tested on: MCF7 breast
HL-60(TB) leukemia = tested on: HL-60(TB) leukemia
786-0 renal = tested on: 786-0 renal
HOP-62 NSCLC = tested on: HOP-62 NSCLC
SN12C renal = tested on: SN12C renal
NCI-H460 lung = tested on: NCI-H460 lung
NCI/ADR-RES ovarian = tested on: NCI/ADR-RES ovarian
K-562 leukemia = tested on: K-562 leukemia
OVCAR-3 ovarian = tested on: OVCAR-3 ovarian
BT-549 breast = tested on: BT-549 breast
NCI-H226 lung = tested on: NCI-H226 lung
UACC-257 melanoma = tested on: UACC-257 melanoma
M14 melanoma = tested on: M14 melanoma
HCT-116 colon = tested on: HCT-116 colon
EKVX NSCLC = tested on: EKVX NSCLC
MALME-3M melanoma = tested on: MALME-3M melanoma
UO-31 renal = tested on: UO-31 renal
SR leukemia = tested on: SR leukemia
HOP-92 NSCLC = tested on: HOP-92 NSCLC
SW-620 colon = tested on: SW-620 colon
LOX IMVI melanoma = tested on: LOX IMVI melanoma
SF-295 CNS = tested on: SF-295 CNS
HT29 colon = tested on: HT29 colon
COLO 205 colon = tested on: COLO 205 colon
HCC-2998 colon = tested on: HCC-2998 colon
TK-10 renal = tested on: TK-10 renal
MDA-MB-435 = tested on: MDA-MB-435
OVCAR-8 ovarian = tested on: OVCAR-8 ovarian
A549 NSCLC = tested on: A549 NSCLC
SF-268 CNS = tested on: SF-268 CNS
UACC-62 melanoma = tested on: UACC-62 melanoma
NCI-H23 lung = tested on: NCI-H23 lung
SF-539 CNS = tested on: SF-539 CNS
RXF 393 renal = tested on: RXF 393 renal
SK-OV-3 ovarian = tested on: SK-OV-3 ovarian
SK-MEL-5 melanoma = tested on: SK-MEL-5 melanoma
CCRF-CEM leukemia = tested on: CCRF-CEM leukemia
SK-MEL-2 melanoma = tested on: SK-MEL-2 melanoma
A498 renal = tested on: A498 renal
MDA-N = tested on: MDA-N
RPMI-8226 leukemia = tested on: RPMI-8226 leukemia
HCT-15 colon = tested on: HCT-15 colon
SNB-19 CNS = tested on: SNB-19 CNS
ACHN renal = tested on: ACHN renal
HS 578T breast = tested on: HS 578T breast
SNB-75 CNS = tested on: SNB-75 CNS
T-47D breast = tested on: T-47D breast
NCI-H522 lung = tested on: NCI-H522 lung
OVCAR-4 ovarian = tested on: OVCAR-4 ovarian
KM12 colon = tested on: KM12 colon

Measured: TGI

COc1ccc(N2C(=O)CC(c3c[nH]c4ccccc34)C2=O)cc1 (stereo not given)
not listed: SNB-75 CNS | T-47D breast | NCI-H522 lung | OVCAR-4 ovarian | KM12 colon
> 100 µM: all other assays above

Clc1cccc(Cl)c1C1SCc2nc3ncccc3n21 (stereo not given)
not listed: MCF7 breast | BT-549 breast | HOP-92 NSCLC
> 100 µM: all other assays above
